# Measured values reported in patent US9822130B2, “Triazolo-pyrazinyl derivatives useful as soluble guanylate cyclase activators” (Merck Sharp & Dohme Corp., priority 2014, dated 2017).
# Molecular target: T1, sGC α1/β1 heterodimer stably expressed in CHO-K1 cell line (CHO-K1/sGC) (Homo sapiens, UniProt Q02108+Q02153)
# T1 construct: expressed in transfected cells
# T1 sequence (Q02108 1-690): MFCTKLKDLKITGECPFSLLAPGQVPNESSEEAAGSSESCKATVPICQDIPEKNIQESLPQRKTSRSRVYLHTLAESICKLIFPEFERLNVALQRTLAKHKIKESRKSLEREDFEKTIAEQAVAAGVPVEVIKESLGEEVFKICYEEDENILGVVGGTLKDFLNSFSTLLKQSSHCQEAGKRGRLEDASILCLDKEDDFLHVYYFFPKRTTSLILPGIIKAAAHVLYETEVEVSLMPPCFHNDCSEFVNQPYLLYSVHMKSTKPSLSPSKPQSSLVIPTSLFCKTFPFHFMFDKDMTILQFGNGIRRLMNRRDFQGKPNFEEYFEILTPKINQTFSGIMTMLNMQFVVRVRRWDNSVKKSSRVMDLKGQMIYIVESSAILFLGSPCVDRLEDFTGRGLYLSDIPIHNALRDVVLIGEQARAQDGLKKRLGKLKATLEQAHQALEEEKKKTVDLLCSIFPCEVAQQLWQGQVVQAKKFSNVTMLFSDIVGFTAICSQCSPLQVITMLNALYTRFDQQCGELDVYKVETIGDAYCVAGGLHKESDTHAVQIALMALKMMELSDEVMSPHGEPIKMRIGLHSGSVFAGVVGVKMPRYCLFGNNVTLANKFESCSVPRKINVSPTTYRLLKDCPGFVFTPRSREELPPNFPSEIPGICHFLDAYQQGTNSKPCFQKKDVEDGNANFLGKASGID
# T1 sequence (Q02153 1-619): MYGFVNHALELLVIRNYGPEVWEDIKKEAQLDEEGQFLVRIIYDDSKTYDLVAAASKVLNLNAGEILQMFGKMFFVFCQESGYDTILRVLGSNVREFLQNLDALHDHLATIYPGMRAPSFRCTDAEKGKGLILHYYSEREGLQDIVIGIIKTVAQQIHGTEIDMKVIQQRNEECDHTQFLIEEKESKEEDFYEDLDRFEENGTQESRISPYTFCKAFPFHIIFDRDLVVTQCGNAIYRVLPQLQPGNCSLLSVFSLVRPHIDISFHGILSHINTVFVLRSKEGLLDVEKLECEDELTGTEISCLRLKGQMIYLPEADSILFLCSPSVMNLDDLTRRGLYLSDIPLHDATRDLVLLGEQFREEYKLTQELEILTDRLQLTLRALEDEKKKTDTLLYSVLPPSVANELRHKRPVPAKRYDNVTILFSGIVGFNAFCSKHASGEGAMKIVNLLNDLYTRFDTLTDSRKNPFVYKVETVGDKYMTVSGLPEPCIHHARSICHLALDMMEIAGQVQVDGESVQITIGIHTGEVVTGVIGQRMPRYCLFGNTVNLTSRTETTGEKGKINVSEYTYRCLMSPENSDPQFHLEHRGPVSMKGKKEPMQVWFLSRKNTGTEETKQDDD
# Test: Cell-based sGC Functional Assay (CASA Assay), cGMP generation
# Conditions: CHO-K1/sGC cells, 1 hr at 37° C., cGMP by HTRF, 4P fit; presence or absence of 1 μM DETA-NO not given; read-out: IP (nM) (inflection point)
# Description: sGC is a heme-containing enzyme that converts GTP to secondary messenger cGMP. Increases in cGMP levels affect several physiological processes including vasorelaxation through multiple downstream pathways. […] Heme-dependent activators (HDAs) preferentially activate sGC containing a ferrous heme group. To determine the effect of sGC activators on enzyme activity, the CASA assay was developed to monitor the generation of cGMP in a cell line that stably expresses the heterodimeric sGC protein.
# A CHO-K1 cell line stably expressing the sGC α1/β1 heterodimer was generated using a standard transfection protocol. CHO-K1 cells were transfected with plasmids pIREShyghsGCα1 and pIRESneo-hsGCβ1 simultaneously using FUGENE reagent. Clones that stably express both subunits were selected with hygromycin and neomycin for ˜2 weeks. Clone #7 was chosen for the assay and was designated CHO-K1/sGC. CHO-K1/sGC cells were maintained in F-K12 medium containing 10% heat-inactivated Fetal Bovine Serum (FBS), 100 μg/mL penicillin/streptomycin, 0.5 mg/mL hygromycin and 0.25 mg/mL G418. The cells were then cryopreserved in LN2. On the day of the assay, cells thawed and resuspended in EBSS Assay Buffer (Sigma, E3024) supplemented with 5 mM MgCl2, 10 mM HEPES (4-(2-hydroxyethyl)piperazine-1-ethanesulfonic acid) and 0.05% BSA (bovine serum albumin) (EAB) and cell density was then adjusted to 4×10^5/mL with EAB, IBMX (3-isobutyl-1-methylxanthin, 0.5 mM) was added to inhibit degradation of cGMP. Compounds were diluted from DMSO stock solutions and added to the assay at a final DMSO concentration of 2.5%. Cells were incubated with compounds in the presence and absence of 1 μM of Diethylenetriamine/nitric oxide adduct (DETA-NO; Sigma, 17018) for 1 hr at 37° C. At the end of the incubation period, the reaction was terminated and the cells were lysed with the detection reagents from Cisbio Kits. The level of intracellular cGMP was determined using an HTRF-based assay kit (CisBio, 62GM2PEC), which detects the displacement of a fluorescence labeled cGMP from its specific antibody. The cGMP produced by test compounds was directly compared to the maximum cGMP production (this value was set to equal 100% activation.) of the published sGC-HDA Compound A:
# [drawing 300] (Example 1 in WO 2010/065275, published Jun. 10, 2010). The test compounds' activities were then expressed as a percentage of Compound A, the standard in every experiment. This percent activation was calculated either in the presence or absence of DETA-NO which was then plotted. IP and maximum fold induction was derived using ADA analysis software for 4P fit.
# The compounds in the Examples of the instant invention had inflection points (IP) less than or equal to 10 μM and more particularly less than or equal to about 1 μM.
row,SMILES,EC50 [nM]
1,"Nc1nc(-c2cn3ncnc3c(CCC(F)(F)C(F)(F)F)n2)nc2c1C(c1cn(C3CC3)nn1)(C1CC1)C(=O)N2 (stereo not drawn) [Example 96B, 4-amino-5-cyclopropyl-5-(1-cyclopropyl-1H-1,2,3-triazol-4-yl)-2-(8-(3,3,4,4,4-pentafluorobutyl)-[1,2,4]triazolo[1,5-a]pyrazin-6-yl)-5H-pyrrolo[2,3-d]pyrimidin-6(7H)-one]",134
2,"CCCCc1nc(-c2nc(O)c3c(n2)NC(=O)C3(C)c2ccc(F)cn2)cn2ncnc12 (stereo not drawn) [Example 155B, 2-(8-butyl-[1,2,4]triazolo[1,5-a]pyrazin-6-yl)-5-(5-fluoropyridin-2-yl)-4-hydroxy-5-methyl-5H-pyrrolo[2,3-d] pyrimidin-6(7H)-one]",163
3,"CC1(c2ccc(O)cn2)C(=O)Nc2nc(-c3cn4ncnc4c(CCC(F)(F)C(F)(F)F)n3)nc(N)c21 (stereo not drawn) [Example 110A, 4-Amino-5-(5-hydroxypyridin-2-yl)-5-methyl-2-(8-(3,3,4,4,4-pentafluorobutyl)-[1,2,4]triazolo [1,5-a]pyrazin-6-yl)-5,7-dihydro-6H-pyrrolo [2,3-d]pyrimidin-6-one]",139
4,"CCCc1nc(-c2nc(N)c3c(n2)NC(=O)C3(C)c2ccc(Cl)cc2)cn2ncnc12 (stereo not drawn) [Example 53A, 4-amino-5-(4-chlorophenyl)-5-methyl-2-(8-propyl-[1,2,4]triazolo[1,5-a]pyrazin-6-yl)-5H-pyrrolo[2,3-d]pyrimidin-6(7H)-one]",26.9
5,"CC(C)Cc1nc(-c2nc(N)c3c(n2)NC(=O)[C@@]3(C)c2ccc(F)cc2)cn2ncnc12 [Example 73A, (S)-4-amino-5-(4-fluorophenyl)-2-(8-isobutyl-[1,2,4]triazolo[1,5-a]pyrazin-6-yl)-5-methyl-5,7-dihydro-6H-pyrrolo[2,3-d]pyrimidin-6-one]",44.1
6,"CC1(c2ccccc2)C(=O)Nc2nc(-c3cn4ncnc4c(CCCC(F)(F)F)n3)nc(N)c21 (stereo not drawn) [Example 37B, 4-amino-5-methyl-5-phenyl-2-(8-(4,4,4-trifluorobutyl)-[1,2,4]triazolo[1,5-a]pyrazin-6-yl)-5H-pyrrolo[2,3-d]pyrimidin-6(7H)-one]",11.5
7,"CC1(c2ccc(F)c(F)c2)C(=O)Nc2nc(-c3cn4ncnc4c(CCCC(F)(F)F)n3)nc(N)c21 (stereo not drawn) [Example 38B, 4-amino-5-(3,4-difluorophenyl)-5-methyl-2-(8-(4,4,4-trifluorobutyl)-[1,2,4]triazolo[1,5-a]pyrazin-6-yl)-5H-pyrrolo[2,3-d]pyrimidin-6(7H)-one]",11
8,"CCCCc1nc(-c2nc(N)c3c(n2)NC(=O)C3(C)c2ccc(F)cn2)cn2ncnc12 (stereo not drawn) [Example 61B, 4-amino-2-(8-butyl-[1,2,4]triazolo[1,5-d]pyrazin-6-yl)-5-(5-fluoropyridin-2-yl)-5-methyl-5H-pyrrolo[2,3-d]pyrimidin-6(7H)-one]",9.7
9,"COc1cccc(Cc2nc(-c3nc(N)c4c(n3)NC(=O)[C@@]4(C)c3ccc(F)cc3)cn3ncnc23)c1 [Example 86B, (S)-4-amino-5-(4-fluorophenyl)-2-(8-(3-methoxybenzyl)-[1,2,4]triazolo[1,5-a]pyrazin-6-yl)-5-methyl-5H-pyrrolo[2,3-d]pyrimidin-6(7H)-one]",26.4
10,"CCCCc1nc(-c2nc(N)c3c(n2)NC(=O)C3(C)c2ccc(Cl)c(F)c2)cn2ncnc12 (stereo not drawn) [Example 62B, 4-amino-2-(8-butyl-[1,2,4]triazolo[1,5-a]pyrazin-6-yl)-5-(4-chloro-3-fluorophenyl)-5-methyl-5H-pyrrolo[2,3-d]pyrimidin-6(7H)-one]",51
11,"C[C@@]1(c2ccc(F)cc2)C(=O)Nc2nc(-c3cn4ncnc4c(CCC(F)(F)C(F)(F)F)n3)nc(C(N)=O)c21 [Example 177A, 5-(4-Fluorophenyl)-5-methyl-6-oxo-2-(8-(3,3,4,4,4-pentafluorobutyl)-[1,2,4]triazolo[1,5-a]pyrazin-6-yl)-6,7-dihydro-5H-pyrrolo[2,3-d]pyrimidine-4-carboxamide]",128
12,"N#Cc1ccc(C2(C3CC3)C(=O)Nc3nc(-c4cn5ncnc5c(CCCC(F)(F)F)n4)nc(N)c32)nc1 (stereo not drawn) [Example 117A, 6-(4-Amino-5-cyclopropyl-6-oxo-2-(8-(4,4,4-trifluorobutyl)-[1,2,4]triazolo[1,5-a]pyrazin-6-yl)-6,7-dihydro-5H-pyrrolo[2,3-d]pyrimidin-5-yl)nicotinonitrile]",49.2
13,"Cc1nc2c(CCC(F)(F)C(F)(F)F)nc(-c3nc(O)c4c(n3)NC(=O)C4(C)c3ccc(Cl)c(F)c3)cn2n1 (stereo not drawn) [Example 132B, 5-(4-chloro-3-fluorophenyl)-4-hydroxy-5-methyl-2-(2-methyl-8-(3,3,4,4,4-pentafluorobutyl)-[1,2,4]triazolo[1,5-a]pyrazin-6-yl)-5H-pyrrolo[2,3-d]pyrimidin-6(7H)-one]",442
14,"CC1(c2ccc(C3CC3)nc2)C(=O)Nc2nc(-c3cn4ncnc4c(CCC(F)(F)C(F)(F)F)n3)nc(N)c21 (stereo not drawn) [Example 13B, 4-amino-5-(6-cyclopropylpyridin-3-yl)-5-methyl-2-(8-(3,3,4,4,4-pentafluorobutyl)-[1,2,4]triazolo[1,5-a]pyrazin-6-yl)-5H-pyrrolo[2,3-d]pyrimidin-6(7H)-one]",80.6
15,"CC1(c2cnc(C(F)(F)F)cn2)C(=O)Nc2nc(-c3cn4ncnc4c(CCCC(F)(F)F)n3)nc(N)c21 (stereo not drawn) [Example 50B, 4-amino-5-methyl-2-(8-(4,4,4-trifluorobutyl)-[1,2,4]triazolo[1,5-a]pyrazin-6-yl)-5-(5-(trifluoromethyl)pyrazin-2-yl)-5H-pyrrolo[2,3-d]pyrimidin-6(7H)-one]",150
16,"C[C@@]1(c2ccc(F)cc2)C(=O)Nc2nc(-c3cn4ncnc4c(Cc4ccc(F)cc4)n3)nc(O)c21 [Example 162B, (S)-2-(8-(4-fluorobenzyl)-[1,2,4]triazolo[1,5-a]pyrazin-6-yl)-5-(4-fluorophenyl)-4-hydroxy-5-methyl-5H-pyrrolo[2,3-d]pyrimidin-6(7H)-one]",96.7

# Same assay, conditions: CHO-K1/sGC cells, 1 hr at 37° C., cGMP by HTRF; presence or absence of 1 μM DETA-NO not given; read-out: % Act. (percent activation relative to maximum cGMP production of Compound A = 100%)
row,SMILES,Emax [%]
1,"CC1(c2ccc(O)cn2)C(=O)Nc2nc(-c3cn4ncnc4c(CCC(F)(F)C(F)(F)F)n3)nc(N)c21 (stereo not drawn) [Example 110A, 4-Amino-5-(5-hydroxypyridin-2-yl)-5-methyl-2-(8-(3,3,4,4,4-pentafluorobutyl)-[1,2,4]triazolo [1,5-a]pyrazin-6-yl)-5,7-dihydro-6H-pyrrolo [2,3-d]pyrimidin-6-one]",70
2,"C[C@@]1(c2ccc(F)cc2)C(=O)Nc2nc(-c3cn4ncnc4c(Cc4ccc(F)cc4)n3)nc(O)c21 [Example 162B, (S)-2-(8-(4-fluorobenzyl)-[1,2,4]triazolo[1,5-a]pyrazin-6-yl)-5-(4-fluorophenyl)-4-hydroxy-5-methyl-5H-pyrrolo[2,3-d]pyrimidin-6(7H)-one]",100
